From ChEMBL document CHEMBL1649413, “Structure-activity relationship of 4(5)-aryl-2-amino-1H-imidazoles, N1-substituted 2-aminoimidazoles and imidazo[1,2-a]pyrimidinium salts as inhibitors of biofilm formation by Salmonella typhimurium and Pseudomonas aeruginosa” (J Med Chem, 2011)
The source made the active and inactive calls. The calls are words filed in the database; no cut-off is given here.

Tests used:
Pseudomonas aeruginosa [1] = test: Antibiofilm activity in Pseudomonas aeruginosa assessed as inhibition of biofilm formation at 25 degC after 24 hrs; format: functional, organism-based
Salmonella typhimurium [2] = test: Antibiofilm activity in Salmonella Typhimurium ATCC 14028 assessed as inhibition of biofilm formation at 25 degC after 24 hrs; format: functional, organism-based, Salmonella enterica subsp. enterica serovar Typhimurium; conditions: Salmonella enterica, ATCC 14028, 24 h
Salmonella typhimurium [3] = test: Antimicrobial activity against Salmonella Typhimurium ATCC 14028 assessed as inhibition of planktonic growth at 400 uM at 25 degC after 24 hrs; format: functional, organism-based; conditions: Salmonella enterica subsp. enterica serovar Typhimurium
Pseudomonas aeruginosa [4] = test: Antimicrobial activity against Pseudomonas aeruginosa assessed as inhibition of planktonic growth at 50 uM at 25 degC after 24 hrs; format: functional, organism-based
Pseudomonas aeruginosa [5] = test: Antimicrobial activity against Pseudomonas aeruginosa assessed as inhibition of planktonic growth at 20 uM at 37 degC after 24 hrs; format: functional, organism-based
Pseudomonas aeruginosa [6] = test: Antimicrobial activity against Pseudomonas aeruginosa assessed as inhibition of planktonic growth at 100 uM at 37 degC after 24 hrs; format: functional, organism-based
Pseudomonas aeruginosa [7] = test: Antimicrobial activity against Pseudomonas aeruginosa assessed as inhibition of planktonic growth at 100 uM at 25 degC after 24 hrs; format: functional, organism-based
Salmonella typhimurium [8] = test: Antimicrobial activity against Salmonella Typhimurium ATCC 14028 assessed as inhibition of planktonic growth at 40 uM at 25 degC after 24 hrs; format: functional, organism-based; conditions: Salmonella enterica subsp. enterica serovar Typhimurium
Salmonella typhimurium [9] = test: Antimicrobial activity against Salmonella Typhimurium ATCC 14028 assessed as inhibition of planktonic growth at 25 uM at 25 degC after 24 hrs; format: functional, organism-based; conditions: Salmonella enterica subsp. enterica serovar Typhimurium
Salmonella typhimurium [10] = test: Antimicrobial activity against Salmonella Typhimurium ATCC 14028 assessed as inhibition of planktonic growth at 400 uM at 37 degC after 24 hrs; format: functional, organism-based; conditions: Salmonella enterica subsp. enterica serovar Typhimurium
Salmonella typhimurium [11] = test: Antimicrobial activity against Salmonella Typhimurium ATCC 14028 assessed as inhibition of planktonic growth at 10 uM at 25 degC after 24 hrs; format: functional, organism-based; conditions: Salmonella enterica subsp. enterica serovar Typhimurium
Salmonella typhimurium [12] = test: Antibiofilm activity in Salmonella Typhimurium ATCC 14028 assessed as inhibition of biofilm formation at 37 degC after 24 hrs; format: functional, organism-based, Salmonella enterica subsp. enterica serovar Typhimurium; conditions: Salmonella enterica, ATCC 14028, 24 h
Pseudomonas aeruginosa [13] = test: Antibiofilm activity in Pseudomonas aeruginosa assessed as inhibition of biofilm formation at 37 degC after 24 hrs; format: functional, organism-based
Pseudomonas aeruginosa [14] = test: Antimicrobial activity against Pseudomonas aeruginosa assessed as inhibition of planktonic growth at 40 uM at 37 degC after 24 hrs; format: functional, organism-based
Pseudomonas aeruginosa [15] = test: Antimicrobial activity against Pseudomonas aeruginosa assessed as inhibition of planktonic growth at 10 uM at 25 degC after 24 hrs; format: functional, organism-based
Salmonella typhimurium [16] = test: Antimicrobial activity against Salmonella Typhimurium ATCC 14028 assessed as inhibition of planktonic growth at 20 uM at 25 degC after 24 hrs; format: functional, organism-based; conditions: Salmonella enterica subsp. enterica serovar Typhimurium
Pseudomonas aeruginosa [17] = test: Antimicrobial activity against Pseudomonas aeruginosa assessed as inhibition of planktonic growth at 400 uM at 37 degC after 24 hrs; format: functional, organism-based
Pseudomonas aeruginosa [18] = test: Antimicrobial activity against Pseudomonas aeruginosa assessed as inhibition of planktonic growth at 800 uM at 37 degC after 24 hrs; format: functional, organism-based
Pseudomonas aeruginosa [19] = test: Antimicrobial activity against Pseudomonas aeruginosa assessed as inhibition of planktonic growth at 40 uM at 25 degC after 24 hrs; format: functional, organism-based
Salmonella typhimurium [20] = test: Antimicrobial activity against Salmonella Typhimurium ATCC 14028 assessed as inhibition of planktonic growth at 50 uM at 37 degC after 24 hrs; format: functional, organism-based; conditions: Salmonella enterica subsp. enterica serovar Typhimurium
Salmonella typhimurium [21] = test: Antimicrobial activity against Salmonella Typhimurium ATCC 14028 assessed as inhibition of planktonic growth at 150 uM at 37 degC after 24 hrs; format: functional, organism-based; conditions: Salmonella enterica subsp. enterica serovar Typhimurium
Salmonella typhimurium [22] = test: Antimicrobial activity against Salmonella Typhimurium ATCC 14028 assessed as inhibition of planktonic growth at 25 uM at 37 degC after 24 hrs; format: functional, organism-based; conditions: Salmonella enterica subsp. enterica serovar Typhimurium
Salmonella typhimurium [23] = test: Antimicrobial activity against Salmonella Typhimurium ATCC 14028 assessed as inhibition of planktonic growth at 4 uM at 25 degC after 24 hrs; format: functional, organism-based; conditions: Salmonella enterica subsp. enterica serovar Typhimurium
Salmonella typhimurium [24] = test: Antimicrobial activity against Salmonella Typhimurium ATCC 14028 assessed as inhibition of planktonic growth at 100 uM at 37 degC after 24 hrs; format: functional, organism-based; conditions: Salmonella enterica subsp. enterica serovar Typhimurium
Pseudomonas aeruginosa [25] = test: Antimicrobial activity against Pseudomonas aeruginosa assessed as inhibition of planktonic growth at 5 uM at 25 degC after 24 hrs; format: functional, organism-based

Row | IC50 (Pseudomonas aeruginosa [1]) | IC50 (Salmonella typhimurium [2]) | IC50 (Salmonella typhimurium [12]) | IC50 (Pseudomonas aeruginosa [13]) | SMILES | inhibition (Salmonella typhimurium [3]) | inhibition (Pseudomonas aeruginosa [5]) | inhibition (Pseudomonas aeruginosa [6]) | inhibition (Salmonella typhimurium [8]) | inhibition (Salmonella typhimurium [10]) | inhibition (Salmonella typhimurium [11]) | inhibition (Pseudomonas aeruginosa [14]) | inhibition (Pseudomonas aeruginosa [15]) | inhibition (Pseudomonas aeruginosa [19]) | also measured
1 | 34.5 µM | 17.6 µM | 396 µM | 94 µM | Nc1ncc(-c2ccc([N+](=O)[O-])cc2)[nH]1 | Active | inactive | inactive | Active | Active | inactive | inactive |  |  | inhibition (Pseudomonas aeruginosa [4]): inactive; inhibition (Pseudomonas aeruginosa [7]): Active; inhibition (Salmonella typhimurium [9]): inactive
2 | 8.6 µM | 17.3 µM | 349 µM | 365 µM | Nc1nc(-c2ccc(-c3ccccc3)cc2)c[nH]1 |  |  |  | Active | Active | inactive |  | inactive | inactive | inhibition (Salmonella typhimurium [16]): Active; inhibition (Pseudomonas aeruginosa [17]): Active; inhibition (Pseudomonas aeruginosa [18]): Active
3 | 3.2 µM | 47.9 µM | 54.3 µM | 51.3 µM | Nc1ncc(-c2ccc(Br)cc2)[nH]1 | Active | inactive | Active | inactive |  |  | inactive | inactive | Active | inhibition (Salmonella typhimurium [20]): inactive; inhibition (Salmonella typhimurium [21]): inactive; inhibition (Salmonella typhimurium [22]): inactive; inhibition (Salmonella typhimurium [23]): inactive; inhibition (Salmonella typhimurium [24]): inactive; inhibition (Pseudomonas aeruginosa [25]): inactive
